Experimental data as given in US10001469B2, “Use of GPR83 to identify pruritus-related substances” (University of Miyazaki, priority 2010, dated 2018).
“Also recorded” adds a separate entry of the source. No end group written: not given here.

Assays:
pain-related behavior = conditions: cited from earlier work; for suppression of pain-related behavior resulting from SP: Non-patent Documents 1, 2 and 3
[1] = tested on: intrathecally catheterized rats; test: Scratching behavior after intrathecal administration of the peptide alone; assay type: in vivo, rat; conditions: 10^−3 M (10 nmol/10 μl) intrathecal
Procedure: 10^−3 M (10 nmol/10 μl) HK-1 and SP, the N-terminal regions (nHK-1 and nSP), and the C-terminal regions (cHK-1 and cSP) were administered to intrathecally catheterized rats via catheters. Ethological changes beginning immediately after administration were evaluated using the number of scratching events during a 5-minute period after each peptide administration as an indicator. Here, the expression “10^−3 M (10 nmol/10 μl) . . . administered” refers to administration of 10 μl (full dose) of a solution containing 10 nmol of a peptide (e.g., nHK-1) (that is, a 10^−3 M solution). The same applies to the following similar expressions. […] In these graphs, the number of scratching events induced by administration of 10^−3 M (10 nmol/10 μl) SP or HK-1 alone is designated as a control, and is specifically designated as 100%.

Row | Substance | suppression of pain-related behavior resulting from SP (pain-related behavior) | scratching behavior on administration of the peptide alone (number of scratching events during a 5-minute period) [1] | further results
1 | Arg-Pro-Lys-Pro-Gln-Gln-Phe-NH2 (RPKPQQF-NH2) [SP(1-7)] | can be suppressed; also recorded: suppress pain-related behavior resulting from SP | – | –
2 | Arg-Pro-Lys-Pro-Gln-Gln-Phe-Phe-NH2 (RPKPQQFF-NH2) [SP(1-8)] | suppress pain-related behavior resulting from SP | – | –
3 | Gln-Phe-Phe-Gly-Leu-Met-NH2 (QFFGLM-NH2) [cSP] | – | resulted in scratching behavior | –
4 | Gln-Phe-Tyr-Gly-Leu-Met-NH2 (QFYGLM-NH2) [cHK-1] | – | resulted in scratching behavior | –
5 | Phe-Phe-Gly-Leu-Met-NH2 (FFGLM-NH2) [SP(7-11)] | – | – | induction of pain-related behavior (e.g., scratching behavior) (pain-related behavior; administered to a rat or a mouse, Non-patent Document 1): pain-related behavior is induced
